System: rat small intestine
Experiment: LPS-induced small intestinal FD4 paracellular permeability in vivo (PV and arterial FD4)
Settings: for TDG-induced inhibitory effect on PV FD4 levels: LPS 6 hr + TDG 6 hr; for TDG-induced inhibitory effect on PV FD4 levels / Arterial FD4 levels in LPS 6 hr + TDG 6 hr rats: inhibitor iv at t=-10 min or co-perfused; for Arterial FD4 levels in LPS 6 hr + TDG 6 hr rats: t=90 min
Experimental: LPS treatment. Animals were treated with LPS (5 mg/kg, ip) once at 9 am. For the acute experiments, the animals were fasted overnight and were treated with LPS 1, 3, or 6 hr before the anesthesia for small intestinal perfusion of FD4 as described herein. For the 24-hr experiments, the animals fed ad libitum were treated with LPS 24 hr before anesthesia induction used for the perfusion study. As a control, saline was injected ip at the corresponding time before the experiments. The animal groups were expressed as control, LPS 1 hr, LPS 3 hr, LPS 6 hr, and LPS 24 hr.
Small intestinal perfusion. The small intestinal perfusion from the duodenum, and portal vein (PV) cannulation were prepared by the modified methods. Under isoflurane anesthesia (2%), the animal was placed […] on a recirculating heating block system (Summit Medical Systems, Bend, Oreg., USA) in order to maintain body temperature at 36-37° C. Prewarmed saline was infused via the right femoral vein at 1.08 ml/h using a Harvard infusion pump (Harvard Apparatus, Holliston, Mass., USA). The abdomen was incised, and the PV was cannulated with a polyethylene (PE)-50 tube attached with 23G needle and fixed by methylacrylate adhesive at the insertion site. The tube was filled with heparinized saline enabling repeated blood sampling. Samples of 0.2 ml PV blood were collected every 15 min, followed by flushing with 0.2 ml heparinized saline. A polyethylene tube (diameter 5 mm) filled with PBS was inserted through the forestomach and tied at 0.5 cm caudal from the pyloric ring. After bolus perfusion of 2-ml phosphate buffer saline (PBS, 10 mM, pH 7.4) into the duodenum from the tube, followed by stabilization for ˜30 min, the time was set as t=0. FD4 (0.1 mM) in 10-ml PBS was slowly perfused at t=0 min for 30 sec. Blood samples were collected into a 0.5-ml tubes containing 1-μl each of EDTA (0.5 M) and the dipeptidyl peptidase-4 (DPP4) inhibitor NVP-728 (1 mM), and immediately centrifuged at 5,000× g for 5 min, after which the plasma was stored on ice or at −80 ° C. until use. At 90 min, after collection of PV samples, arterial blood was taken from abdominal aorta, followed by euthanasia by thoracotomy.
Appearance of FD4 into the PV and arterial plasma was assessed by fluorescence intensity measurement using a multi-mode microplate reader (Synergy-2, BioTek Instruments, Inc., Winooski, VT, USA). Fluorescence intensity in t=0 sample as background was subtracted from the fluorescence values measured in other time point samples. FD4 content was calculated according to the standard curve generated each time of measurement.
Drug treatment for the intestinal perfusion study. The following drugs were administered at the time after LPS treatment: the GLP2R partial agonist/antagonist GLP-2(3-33) (1 mg/kg; 280 nmol/kg, ip) was given immediately after LPS treatment (0 hr after LPS treatment); GLP-2 (380 μg/kg; 100 nmol/kg, ip) was given 6 hr after LPS treatment; a stable GLP-2 analog TDG (50 μg/kg; 13.3 nmol/kg) was ip injected 0, 3, 6, or 12 hr after LPS treatment or iv injected at t=0 min just before the perfusion of FD4 solution (6 or 24 hr after LPS treatment). In acute experiments, TDG was iv injected at t=0 min (6 hr after LPS treatment) with or without the pretreatment of the selective IGF1 receptor (IGF1R) tyrosine kinase inhibitor AEW541 (0.1 mg/kg, iv), the selective EGF receptor (EGFR) tyrosine kinase inhibitor PD153035 (10 μg/kg, iv) or PG97-269 (1 mg/kg, iv) at t=−10 min, or the co-perfusion of L-NAME (0.1 mM, pf) with FD4 solution.

| Molecule | PV FD4 levels (LPS 6 hr model, TDG 50 μg/kg ip 3 hr after LPS) | PV FD4 levels (LPS 6 hr model, TDG 50 μg/kg iv 6 hr after LPS (t=0 min)) | arterial FD4 levels (LPS 24 hr model, TDG 0 hr after LPS) | PV FD4 levels (LPS 24 hr model, TDG 50 μg/kg ip 0 hr after LPS) | PV FD4 levels (LPS 24 hr model, TDG 50 μg/kg ip 6 hr after LPS) | PV FD4 levels (LPS 24 hr model, TDG 50 μg/kg ip 12 hr after LPS) | PV FD4 levels (LPS 24 hr model, TDG 50 μg/kg iv 24 hr after LPS) | arterial FD4 levels (LPS 24 hr model, TDG 6 hr after LPS) | arterial FD4 levels (LPS 24 hr model, TDG 12 hr after LPS) | arterial FD4 levels (LPS 24 hr model, TDG 24 hr after LPS) | TDG-induced inhibitory effect on PV FD4 levels | Arterial FD4 levels in LPS 6 hr + TDG 6 hr rats | LPS-induced increases in PV FD4 levels at 6 hr (L-NAME 0.1 mM alone co-perfused with FD4, no TDG) |
| --- | --- | --- | --- | --- | --- | --- | --- | --- | --- | --- | --- | --- | --- |
| CC[C@H](C)[C@H](NC(=O)[C@H](Cc1ccccc1)NC(=O)[C@H](CC(=O)O)NC(=O)[C@H](CCCNC(=N)N)NC(=O)[C@H](C)NC(=O)[C@H](C)NC(=O)[C@H](CC(C)C)NC(=O)[C@H](CC(N)=O)NC(=O)[C@H](CC(=O)O)NC(=O)[C@H](CC(C)C)NC(=O)[C@@H](NC(=O)[C@@H](NC(=O)[C@H](CC(N)=O)NC(=O)[C@H](CCSC)NC(=O)[C@H](CCC(=O)O)NC(=O)[C@H](CC(=O)O)NC(=O)[C@H](CO)NC(=O)[C@H](Cc1ccccc1)NC(=O)[C@H](CO)NC(=O)CNC(=O)[C@H](CC(=O)O)NC(=O)CNC(=O)[C@@H](N)Cc1c[nH]cn1)[C@@H](C)O)[C@@H](C)CC)C(=O)N[C@@H](CC(N)=O)C(=O)N[C@@H](Cc1c[nH]c2ccccc12)C(=O)N[C@@H](CC(C)C)C(=O)N[C@H](C(=O)N[C@@H](CCC(N)=O)C(=O)N[C@H](C(=O)N[C@@H](CCCCN)C(=O)N[C@H](C(=O)N[C@H](C(=O)N[C@@H](CC(=O)O)C(=O)O)[C@@H](C)O)[C@@H](C)CC)[C@@H](C)O)[C@@H](C)CC [TDG] | reduced | reduced | no significant effect | little effect | reduced | reduced | little effect | inhibited | inhibited | no significant effect |  |  |  |
| [Ac-His^1, D-Phe^2, Lys^15, Arg^16, Leu^27]-VIP(1-7)-GRF(8-27) (HFDAVFTNSYRKVLKRLSARKLLQDIL; HELM PEPTIDE1{[ac].H.[dF].D.A.V.F.T.N.S.Y.R.K.V.L.K.R.L.S.A.R.K.L.L.Q.D.I.L.[am]}$$$$V2.0; SMILES CC[C@H](C)[C@H](NC(=O)[C@H](CC(=O)O)NC(=O)[C@H](CCC(N)=O)NC(=O)[C@H](CC(C)C)NC(=O)[C@H](CC(C)C)NC(=O)[C@H](CCCCN)NC(=O)[C@H](CCCNC(=N)N)NC(=O)[C@H](C)NC(=O)[C@H](CO)NC(=O)[C@H](CC(C)C)NC(=O)[C@H](CCCNC(=N)N)NC(=O)[C@H](CCCCN)NC(=O)[C@H](CC(C)C)NC(=O)[C@@H](NC(=O)[C@H](CCCCN)NC(=O)[C@H](CCCNC(=N)N)NC(=O)[C@H](Cc1ccc(O)cc1)NC(=O)[C@H](CO)NC(=O)[C@H](CC(N)=O)NC(=O)[C@@H](NC(=O)[C@H](Cc1ccccc1)NC(=O)[C@@H](NC(=O)[C@H](C)NC(=O)[C@H](CC(=O)O)NC(=O)[C@@H](Cc1ccccc1)NC(=O)[C@H](Cc1c[nH]cn1)NC(C)=O)C(C)C)[C@@H](C)O)C(C)C)C(=O)N[C@@H](CC(C)C)C(N)=O) [PG97-269] |  |  |  |  |  |  |  |  |  |  | reversed | reduced |  |
| COC(=O)[C@@H](N)CCCNC(=N)N[N+](=O)[O-] [L-NAME, Nω-nitro-L-arginine methyl ester] |  |  |  |  |  |  |  |  |  |  | reversed | reduced | no effect |

— patent publication US20220257722A1, “COMPOSITIONS AND METHODS OF TREATING AND PREVENTING SYSTEMIC COMPLICATIONS OF ACUTE ILLNESS” (United States Government As Represented By The Department …, priority 2019, published 2022)
